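All cell lines were grown in 96-well plates and treated with compound for 48 hours. GI50 is the concentration that inhibits growth by half.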 Active and inactive are the calls of the source. No stated cut-off is given here; in the data, active = GI50 up to about 1.1 µM and inactive = higher.
Assays:
Test in all cases: growth of human tumour cells (NCI), 48 h
MDA-MB-435 = system: MDA-MB-435
DU-145 = system: DU-145
UACC-257 = system: UACC-257
ACHN = system: ACHN
HCT-116 = system: HCT-116
UO-31 = system: UO-31
EKVX = system: EKVX
NCI-H460 = system: NCI-H460
SN12C = system: SN12C
SNB-19 = system: SNB-19
HL-60 = system: HL-60
A498 = system: A498
K562 = system: K562
SF-539 = system: SF-539
Malme-3M = system: Malme-3M
RXF 393 = system: RXF 393
NCI-H23 = system: NCI-H23
OVCAR-5 = system: OVCAR-5
NCI-H522 = system: NCI-H522
SK-MEL-28 = system: SK-MEL-28

SMILES	GI50 (MDA-MB-435)	GI50 (DU-145)	GI50 (UACC-257)	GI50 (ACHN)	GI50 (HCT-116)	GI50 (UO-31)	GI50 (EKVX)	GI50 (NCI-H460)	GI50 (SN12C)	GI50 (SNB-19)	GI50 (HL-60)	GI50 (A498)	GI50 (K562)	GI50 (SF-539)	GI50 (Malme-3M)	GI50 (RXF 393)	GI50 (NCI-H23)	GI50 (OVCAR-5)	GI50 (NCI-H522)	GI50 (SK-MEL-28)
O=C(O)c1ccccc1/N=N/c1c(O)c(S(=O)(=O)O)cc2cc(S(=O)(=O)O)ccc12	> 100 µM (inactive)	> 100 µM (inactive)	> 100 µM (inactive)	> 100 µM (inactive)	> 100 µM (inactive)	> 100 µM (inactive)	> 100 µM (inactive)	> 100 µM (inactive)	> 100 µM (inactive)	> 100 µM (inactive)	> 100 µM (inactive)	> 100 µM (inactive)	> 100 µM (inactive)	> 100 µM (inactive)	> 100 µM (inactive)	> 100 µM (inactive)	> 100 µM (inactive)	> 100 µM (inactive)	> 100 µM (inactive)	> 100 µM (inactive)
c1ccc2c(c1)[nH]c1c3ccccc3sc21	99.1 µM (inactive)	> 100 µM (inactive)	36.5 µM (inactive)	> 100 µM (inactive)	82.6 µM (inactive)	> 100 µM (inactive)	26.4 µM (inactive)	> 100 µM (inactive)	> 100 µM (inactive)	> 100 µM (inactive)	> 100 µM (inactive)	> 100 µM (inactive)	> 100 µM (inactive)	> 100 µM (inactive)	> 100 µM (inactive)	26.5 µM (inactive)	> 100 µM (inactive)	> 100 µM (inactive)	> 100 µM (inactive)	> 100 µM (inactive)
CC(C)C(Br)CC/C(CBr)=C(\Cl)CCl (stereo not given)	2.35 µM (inactive)	12.6 µM (inactive)	3.03 µM (inactive)	15 µM (inactive)	2 µM (inactive)	6.71 µM (inactive)	17.9 µM (inactive)	12.5 µM (inactive)	2.99 µM (inactive)	16.9 µM (inactive)	0.585 µM (active)	18.6 µM (inactive)	0.682 µM (active)	3.59 µM (inactive)	5.37 µM (inactive)	1.81 µM (inactive)	3.19 µM (inactive)	10.4 µM (inactive)	0.689 µM (active)	2.83 µM (inactive)
C[N+](C)([O-])C12CC3CC(CC(C3)C1)C2	28.4 µM (inactive)	37.2 µM (inactive)	39.2 µM (inactive)	26.4 µM (inactive)	23.9 µM (inactive)	13.9 µM (inactive)	21.4 µM (inactive)	43.7 µM (inactive)	33.7 µM (inactive)	46.3 µM (inactive)	44.6 µM (inactive)	22 µM (inactive)	29.4 µM (inactive)	23.4 µM (inactive)	54.3 µM (inactive)	37.5 µM (inactive)	28.2 µM (inactive)	39.6 µM (inactive)	27.2 µM (inactive)	32.4 µM (inactive)
NCC(O)CNC(=O)c1ccc(-c2ccc(-c3ccc(C(=O)NCC(O)CN)cc3)o2)cc1 (stereo not given)	> 100 µM (inactive)	22 µM (inactive)	> 100 µM (inactive)	45.9 µM (inactive)	22.4 µM (inactive)	49.2 µM (inactive)	27.7 µM (inactive)	59 µM (inactive)	25.1 µM (inactive)	22 µM (inactive)	> 100 µM (inactive)	25 µM (inactive)	> 100 µM (inactive)	19.1 µM (inactive)	21.7 µM (inactive)	18.9 µM (inactive)	36.1 µM (inactive)	> 100 µM (inactive)	33.3 µM (inactive)	> 100 µM (inactive)
COc1cc(S(=O)(=O)Nc2ccc(-c3csc(N4C(=O)CSC4c4cccs4)n3)cc2)ccc1Cl (stereo not given)	29.5 µM (inactive)	22.1 µM (inactive)	20.3 µM (inactive)	> 100 µM (inactive)	31.3 µM (inactive)	57.3 µM (inactive)	50.8 µM (inactive)	29.3 µM (inactive)	25.8 µM (inactive)	33.3 µM (inactive)	14.5 µM (inactive)	43.6 µM (inactive)	22.6 µM (inactive)	25.7 µM (inactive)	27.9 µM (inactive)	11.2 µM (inactive)	31.3 µM (inactive)	> 100 µM (inactive)	15.9 µM (inactive)	19.9 µM (inactive)
C[C@H](CCC1=NCCN1)[C@H]1CC[C@H]2[C@@H]3CC[C@@H]4C[C@H](O)CC[C@]4(C)[C@H]3C[C@H](O)[C@]12C	14.5 µM (inactive)	15.6 µM (inactive)	15.4 µM (inactive)	16.9 µM (inactive)	20.5 µM (inactive)	18.6 µM (inactive)	18.5 µM (inactive)	13.9 µM (inactive)	16.9 µM (inactive)	8.71 µM (inactive)	10.8 µM (inactive)	20.8 µM (inactive)	5.38 µM (inactive)	13.2 µM (inactive)	13.7 µM (inactive)	18 µM (inactive)	14.1 µM (inactive)	14.5 µM (inactive)	5.75 µM (inactive)	18.6 µM (inactive)
O=C1/C(=C/c2ccc(O)cc2)CCC1CNc1ccc(Cl)cc1 (stereo not given)	3.61 µM (inactive)	13.3 µM (inactive)	3.05 µM (inactive)	0.76 µM (active)	1.38 µM (inactive)	3.01 µM (inactive)	6.61 µM (inactive)	4.15 µM (inactive)	3.94 µM (inactive)	15.2 µM (inactive)	0.861 µM (active)	15 µM (inactive)	0.25 µM (active)	6.37 µM (inactive)	4.28 µM (inactive)	6.31 µM (inactive)	5.9 µM (inactive)	10.1 µM (inactive)	0.552 µM (active)	9.95 µM (inactive)
O=C(CN1CCN(Cc2ccccc2)CC1)c1ccc2[nH]c(=O)oc2c1	> 30.5 µM (inactive)	> 100 µM (inactive)	> 100 µM (inactive)	> 100 µM (inactive)	> 100 µM (inactive)	60.7 µM (inactive)	> 66.2 µM (inactive)	> 100 µM (inactive)	> 100 µM (inactive)	> 100 µM (inactive)	> 90.4 µM (inactive)	> 100 µM (inactive)	> 100 µM (inactive)	> 100 µM (inactive)	0.845 µM (active)	> 100 µM (inactive)	> 100 µM (inactive)	> 100 µM (inactive)	74.5 µM (inactive)	> 100 µM (inactive)
N#CC(NNC(=O)c1ccccc1O)c1c(O)ccc2ccccc12 (stereo not given)	8.53 µM (inactive)	2.54 µM (inactive)	3.67 µM (inactive)	5.04 µM (inactive)	2.84 µM (inactive)	2.92 µM (inactive)	5.66 µM (inactive)	2.99 µM (inactive)	7.64 µM (inactive)	13.6 µM (inactive)	0.713 µM (active)	34.7 µM (inactive)	2.9 µM (inactive)	4.63 µM (inactive)	6.27 µM (inactive)	2.75 µM (inactive)	4.65 µM (inactive)	4.38 µM (inactive)	4.42 µM (inactive)	9.33 µM (inactive)
COC(=O)C1(NC(=O)C(N)CC(=O)O)C(C)C1C (stereo not given)	> 100 µM (inactive)	> 100 µM (inactive)	> 100 µM (inactive)	> 100 µM (inactive)	> 100 µM (inactive)	> 100 µM (inactive)	> 100 µM (inactive)	> 100 µM (inactive)	> 100 µM (inactive)	> 100 µM (inactive)	> 100 µM (inactive)	> 100 µM (inactive)	> 100 µM (inactive)	> 100 µM (inactive)	> 100 µM (inactive)	> 100 µM (inactive)	> 100 µM (inactive)	> 100 µM (inactive)	> 100 µM (inactive)	> 100 µM (inactive)

— ChEMBL document CHEMBL1201862, “PubChem BioAssay data set” (2004)
